Measured values taken from patent publication US20240158408A1, “Nitrogen-Containing Heterocyclic Compound, Pharmaceutical Compositions thereof and Use thereof” (280 Bio, Inc., priority 2022, published 2024).

Molecular target: PI3Kα (Homo sapiens (Human), UniProt P42336)
Experiment: ADP-Glo Kinase Assay, PI3Kα enzyme activity inhibition
Details: not given

Chain of PI3Kα (P42336 whole entry): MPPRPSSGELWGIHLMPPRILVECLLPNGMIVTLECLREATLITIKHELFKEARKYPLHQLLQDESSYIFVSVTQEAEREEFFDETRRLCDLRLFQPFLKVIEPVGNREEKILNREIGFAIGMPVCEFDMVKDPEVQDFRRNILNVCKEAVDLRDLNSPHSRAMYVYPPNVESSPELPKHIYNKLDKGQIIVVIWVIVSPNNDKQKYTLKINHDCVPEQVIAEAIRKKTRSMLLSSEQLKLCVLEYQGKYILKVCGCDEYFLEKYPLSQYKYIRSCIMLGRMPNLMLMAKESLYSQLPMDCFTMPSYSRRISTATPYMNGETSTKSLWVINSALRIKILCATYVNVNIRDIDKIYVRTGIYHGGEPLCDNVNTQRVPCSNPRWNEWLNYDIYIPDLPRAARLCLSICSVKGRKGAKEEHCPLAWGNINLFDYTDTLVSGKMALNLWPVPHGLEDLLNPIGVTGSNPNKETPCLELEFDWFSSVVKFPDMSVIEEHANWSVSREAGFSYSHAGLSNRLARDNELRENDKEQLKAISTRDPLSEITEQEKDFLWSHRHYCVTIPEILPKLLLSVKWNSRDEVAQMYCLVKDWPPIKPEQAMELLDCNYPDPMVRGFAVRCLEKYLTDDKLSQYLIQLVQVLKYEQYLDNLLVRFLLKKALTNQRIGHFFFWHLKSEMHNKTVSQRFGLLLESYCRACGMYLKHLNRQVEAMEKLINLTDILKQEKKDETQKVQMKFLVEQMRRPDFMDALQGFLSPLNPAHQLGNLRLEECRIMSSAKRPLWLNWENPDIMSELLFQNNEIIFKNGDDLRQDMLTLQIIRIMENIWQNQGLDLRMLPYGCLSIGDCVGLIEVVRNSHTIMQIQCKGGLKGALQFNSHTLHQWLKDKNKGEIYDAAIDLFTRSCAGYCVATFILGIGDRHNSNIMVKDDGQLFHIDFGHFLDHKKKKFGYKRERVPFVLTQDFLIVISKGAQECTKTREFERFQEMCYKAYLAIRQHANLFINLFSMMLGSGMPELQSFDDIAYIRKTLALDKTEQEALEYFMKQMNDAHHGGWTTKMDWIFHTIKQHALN
Chain of PI3Kα (P27986 whole entry partner): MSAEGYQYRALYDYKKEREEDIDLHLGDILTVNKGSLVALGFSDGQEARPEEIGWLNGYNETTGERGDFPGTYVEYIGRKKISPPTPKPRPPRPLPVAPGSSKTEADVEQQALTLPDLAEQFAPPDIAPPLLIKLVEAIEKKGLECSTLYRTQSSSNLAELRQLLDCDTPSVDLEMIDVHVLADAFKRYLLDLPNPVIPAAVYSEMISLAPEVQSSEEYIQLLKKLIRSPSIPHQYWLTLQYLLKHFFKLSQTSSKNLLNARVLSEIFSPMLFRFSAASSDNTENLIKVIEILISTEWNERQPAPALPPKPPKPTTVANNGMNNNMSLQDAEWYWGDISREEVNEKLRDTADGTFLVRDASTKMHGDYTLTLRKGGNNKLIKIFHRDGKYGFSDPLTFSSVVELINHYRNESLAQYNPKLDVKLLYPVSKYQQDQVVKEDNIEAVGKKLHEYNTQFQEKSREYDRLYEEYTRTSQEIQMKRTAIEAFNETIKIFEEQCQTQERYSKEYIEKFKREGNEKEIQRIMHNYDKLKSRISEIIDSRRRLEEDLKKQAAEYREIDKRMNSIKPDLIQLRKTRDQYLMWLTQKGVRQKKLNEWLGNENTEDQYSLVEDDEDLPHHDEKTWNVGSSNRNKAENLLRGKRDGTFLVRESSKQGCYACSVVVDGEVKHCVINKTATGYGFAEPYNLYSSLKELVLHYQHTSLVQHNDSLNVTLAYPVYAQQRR

| Structure (SMILES) | PI3Kaα IC50 |
| --- | --- |
| CCn1nc2ccc(NC(=O)c3cc(F)cc(C(F)(F)F)c3)c3c2c1C(=O)NC3c1cc(F)ccc1Cl (stereo not shown) [YL115] | +++ (key: +represents IC50<=250 nM; ++ represents 250 nM<IC50<=10 μM; +++ represents IC50>10 μM) |
| CC(C)n1nc2ccc(NC(=O)c3cc(F)cc(C(F)(F)F)c3)c3c2c1C(=O)NC3c1cc(F)ccc1Cl (stereo not shown) [YL118] | ++ (key: +represents IC50<=250 nM; ++ represents 250 nM<IC50<=10 μM; +++ represents IC50>10 μM) |

Same assay, conditions: ADP-Glo; ATP 25 μM; PIP2 50 μg/mL; 1 hour at room temperature

| PI3Kaα IC50 | Structure (SMILES) |
| --- | --- |
| +++ (+++ represents IC50>10 μM) | Cn1nc2c(-c3cn[nH]c3F)cc(NC(=O)c3cc(F)cc(C(F)(F)F)c3)c3c2c1C(=O)NC3c1cc(F)ccc1Cl (stereo not shown) [YL113] |
| +++ (+++ represents IC50>10 μM) | O=C(Nc1cc(F)cc(C(F)(F)F)c1)Nc1cc(Br)c2c3c1C(c1cc(F)ccc1Cl)NC(=O)N3CC2 (stereo not shown) [YL122] |
| +++ (+++ represents IC50>10 μM) | N#Cc1n[nH]cc1-c1cc(NC(=O)c2cc(F)cc(C(F)(F)F)c2)c2c3c1CCN3C(=O)NC2c1cc(F)ccc1Cl (stereo not shown) [YL126] |
| +++ (+++ represents IC50>10 μM) | O=C(Nc1cc(-c2ccc3ncnn3c2)c2c3c1C(c1cc(F)ccc1Cl)NC(=O)N3CC2)c1cc(F)cc(C(F)(F)F)c1 (stereo not shown) [YL128] |
| +++ (+++ represents IC50>10 μM) | O=C(Nc1cc(-c2ccc3ncnn3c2F)c2c3c1C(c1cc(F)ccc1Cl)NC(=O)N3CC2)c1cc(F)cc(C(F)(F)F)c1 (stereo not shown) [YL129] |
| +++ (+++ represents IC50>10 μM) | N#Cc1ccc(-c2cc(NC(=O)c3cc(F)cc(C(F)(F)F)c3)c3c4c2CCN4C(=O)NC3c2cc(Cl)ccc2Cl)c(N)n1 (stereo not shown) [YL130] |
| +++ (+++ represents IC50>10 μM) | N#Cc1c(N)cccc1-c1cc(NC(=O)c2cc(F)cc(C(F)(F)F)c2)c2c3c1CCN3C(=O)NC2c1cc(Cl)ccc1Cl (stereo not shown) [YL132] |
| +++ (+++ represents IC50>10 μM) | N#Cc1c(N)cccc1-c1cc(NC(=O)c2cc(F)cc(C(F)(F)F)c2)c2c3c1CCN3C(=O)NC2c1cc(F)ccc1Cl (stereo not shown) [YL133] |
| +++ (+++ represents IC50>10 μM) | N#Cc1ccc(-c2cc(NC(=O)c3cc(F)cc(C(F)(F)F)c3)c3c4c2CCN4C(=O)NC3c2cc(F)ccc2Cl)c(N)n1 (stereo not shown) [YL134] |
| ++ (++ represents 250 nM<IC50<=10 μM) | N#Cc1ncccc1-c1cc(NC(=O)c2cc(F)cc(C(F)(F)F)c2)c2c3c1CCN3C(=O)NC2c1cc(F)ccc1Cl (stereo not shown) [YL136] |
| +++ (+++ represents IC50>10 μM) | N#Cc1nc(N)ncc1-c1cc(NC(=O)c2cc(F)cc(C(F)(F)F)c2)c2c3c1CCN3C(=O)NC2c1cc(F)ccc1Cl (stereo not shown) [YL137] |
| +++ (+++ represents IC50>10 μM) | O=C(Nc1cc(-c2ccc3ncnn3c2Br)c2c3c1C(c1cc(F)ccc1Cl)NC(=O)N3CC2)c1cc(F)cc(C(F)(F)F)c1 (stereo not shown) [YL139] |
| +++ (+++ represents IC50>10 μM) | C#Cc1c(-c2cc(NC(=O)c3cc(F)cc(C(F)(F)F)c3)c3c4c2CCN4C(=O)NC3c2cc(F)ccc2Cl)ccc2ncnn12 (stereo not shown) [YL140] |
| +++ (+++ represents IC50>10 μM) | N#Cc1ncncc1-c1cc(NC(=O)c2cc(F)cc(C(F)(F)F)c2)c2c3c1CCN3C(=O)NC2c1cc(F)ccc1Cl (stereo not shown) [YL141] |
| +++ (+++ represents IC50>10 μM) | N#Cc1c(-c2cc(NC(=O)c3cc(F)cc(C(F)(F)F)c3)c3c4c2CCN4C(=O)NC3c2cc(F)ccc2Cl)ccc2[nH]ncc12 (stereo not shown) [YL142] |
| +++ (+++ represents IC50>10 μM) | N#Cc1nc(F)ncc1-c1cc(NC(=O)c2cc(F)cc(C(F)(F)F)c2)c2c3c1CCN3C(=O)NC2c1cc(F)ccc1Cl (stereo not shown) [YL143] |
| +++ (+++ represents IC50>10 μM) | O=C(Nc1cc(-c2ccc3ncnn3c2C(F)(F)F)c2c3c1C(c1cc(F)ccc1Cl)NC(=O)N3CC2)c1cc(F)cc(C(F)(F)F)c1 (stereo not shown) [YL145] |
| +++ (+++ represents IC50>10 μM) | COc1c(-c2cc(NC(=O)c3cc(F)cc(C(F)(F)F)c3)c3c4c2CCN4C(=O)NC3c2cc(F)ccc2Cl)ccc2ncnn12 (stereo not shown) [YL146] |
| +++ (+++ represents IC50>10 μM) | O=C(Nc1cc(-c2cnc3[nH]cnc3c2Cl)c2c3c1C(c1cc(F)ccc1Cl)NC(=O)N3CC2)c1cc(F)cc(C(F)(F)F)c1 (stereo not shown) [YL147] |
| ++ (++ represents 250 nM<IC50<=10 μM) | N#Cc1cc(N)ccc1-c1cc(NC(=O)c2cc(F)cc(C(F)(F)F)c2)c2c3c1CCN3C(=O)NC2c1cc(F)ccc1Cl (stereo not shown) [YL150] |
| +++ (+++ represents IC50>10 μM) | N#Cc1cc(N)ncc1-c1cc(NC(=O)c2cc(F)cc(C(F)(F)F)c2)c2c3c1CCN3C(=O)NC2c1cc(F)ccc1Cl (stereo not shown) [YL152] |
| +++ (+++ represents IC50>10 μM) | N#Cc1cc2ncnn2cc1-c1cc(NC(=O)c2cc(F)cc(C(F)(F)F)c2)c2c3c1CCN3C(=O)NC2c1cc(F)ccc1Cl (stereo not shown) [YL153] |

Same assay, conditions: PI3Kaα IC50

| Structure (SMILES) | IC50 |
| --- | --- |
| Nc1cc(NC(=O)c2cc(F)cc(C(F)(F)F)c2)c2c3c1CCN3C(=O)NC2c1cc(F)ccc1C(F)(F)F (stereo not shown) [YL096] | 0.25 to 10 µM |

Same assay, conditions: PI3Kaα IC50, ADP-Glo; ATP 25 μM; PIP2 50 μg/mL; 1 hour at room temperature

| IC50 | Structure (SMILES) |
| --- | --- |
| 0.25 to 10 µM | Nc1cc(-c2nc3cc(Cl)ccc3[nH]2)c2c3c1CCN3C(=O)NC2c1cc(F)ccc1Cl (stereo not shown) [YL099] |
| 0.25 to 10 µM | Nc1cc(-c2nc3cc(Cl)c(Cl)cc3[nH]2)c2c3c1CCN3C(=O)NC2c1cc(F)ccc1Cl (stereo not shown) [YL100] |
| > 10 µM | N#Cc1c(-c2cc(NC(=O)c3cc(F)cc(C(F)(F)F)c3)c3c4c2CCN4C(=O)NC3c2cc(F)ccc2Cl)cc(F)c2ncnn12 (stereo not shown) [YL149] |
